Results from patent publication US11548893B2 (priority 2017, dated 2023).
Where two headings read alike, the source gives them in different places.

Assays:
[1] = tested on: EBOV (mucin-deleted glycoprotein, VSV pseudotype); experiment: microbe, parasite or virus in culture; format: cell-based, Zaire ebolavirus; conditions: Zaire ebolavirus, Vero, 24 h, read-out: EC50 Pseudotype Assays EBOV
[2] = tested on: EBOV_FL: full-length Ebola Zaire GP (VSV pseudotype); experiment: microbe, parasite or virus in culture; format: cell-based, Zaire ebolavirus; conditions: Zaire ebolavirus, Vero, 24 h, read-out: EC50 Pseudotype Assays EBOV_FL
[3] = tested on: BDBV (mucin-deleted glycoprotein, VSV pseudotype); experiment: microbe, parasite or virus in culture; format: cell-based, Bundibugyo ebolavirus; conditions: Vesicular stomatitis virus, Vero, 24 h, read-out: EC50 Pseudotype Assays BDBV
[4] = tested on: SUDV (glycoprotein, VSV pseudotype); experiment: microbe, parasite or virus in culture; format: cell-based, Sudan ebolavirus; conditions: Vesicular stomatitis virus, Vero, 24 h, read-out: EC50 Pseudotype Assays SUDV
[5] = tested on: MARV (full-length glycoprotein, VSV pseudotype); experiment: microbe, parasite or virus in culture; format: cell-based, Marburg marburgvirus; conditions: Vesicular stomatitis virus, Vero, 24 h, read-out: EC50 Pseudotype Assays MARV
[6] = microsomes, 1 h
[7] = microsomes, 1 h; remark: listed apart in the source
[8] = microsomes, 1 h; remark: listed apart in the source
[9] = microsomes, 1 h; remark: listed apart in the source
in vitro [10] = conditions: African green monkey, Cytotox CC50
Sudan Gulu [11] = experiment: organism not typed; conditions: HeLa, read-out: Sudan Gulu EC50
Sudan Gulu [12] = experiment: organism not typed; conditions: read-out: Sudan Gulu EC50
Ebola Zaire [13] = experiment: microbe, parasite or virus in culture; conditions: Zaire ebolavirus, read-out: Ebola Zaire EC50
Ebola Zaire [14] = experiment: microbe, parasite or virus in culture; conditions: Zaire ebolavirus, HeLa, read-out: Ebola Zaire EC50
EBOV (Mayinga) = experiment: microbe, parasite or virus in culture; format: cell-based, Ebola virus; conditions: for EC50: Zaire ebolavirus, Vero
Cyp-p450 1A2 = Cyp-p450 1A2 (Homo sapiens, UniProt P05177)
Cyp-p450 1A2, sequence (P05177 whole entry): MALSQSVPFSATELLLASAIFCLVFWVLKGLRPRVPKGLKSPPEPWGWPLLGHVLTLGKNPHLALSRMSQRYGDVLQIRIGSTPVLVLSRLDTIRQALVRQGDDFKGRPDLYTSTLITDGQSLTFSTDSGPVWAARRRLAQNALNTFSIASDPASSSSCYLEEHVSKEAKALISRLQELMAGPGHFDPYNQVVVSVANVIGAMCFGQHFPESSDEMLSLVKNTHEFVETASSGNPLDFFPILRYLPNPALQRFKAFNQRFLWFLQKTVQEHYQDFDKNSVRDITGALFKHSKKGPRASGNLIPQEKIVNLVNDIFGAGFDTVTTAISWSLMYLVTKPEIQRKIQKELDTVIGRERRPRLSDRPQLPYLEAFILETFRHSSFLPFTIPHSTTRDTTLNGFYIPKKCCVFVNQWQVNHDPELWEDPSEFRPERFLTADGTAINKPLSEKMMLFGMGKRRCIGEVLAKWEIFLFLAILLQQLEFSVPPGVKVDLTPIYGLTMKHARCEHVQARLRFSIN

Cyp-p450 2B6 = Cyp-p450 2B6 (Homo sapiens, UniProt P20813)
Cyp-p450 2B6, sequence (P20813 whole entry): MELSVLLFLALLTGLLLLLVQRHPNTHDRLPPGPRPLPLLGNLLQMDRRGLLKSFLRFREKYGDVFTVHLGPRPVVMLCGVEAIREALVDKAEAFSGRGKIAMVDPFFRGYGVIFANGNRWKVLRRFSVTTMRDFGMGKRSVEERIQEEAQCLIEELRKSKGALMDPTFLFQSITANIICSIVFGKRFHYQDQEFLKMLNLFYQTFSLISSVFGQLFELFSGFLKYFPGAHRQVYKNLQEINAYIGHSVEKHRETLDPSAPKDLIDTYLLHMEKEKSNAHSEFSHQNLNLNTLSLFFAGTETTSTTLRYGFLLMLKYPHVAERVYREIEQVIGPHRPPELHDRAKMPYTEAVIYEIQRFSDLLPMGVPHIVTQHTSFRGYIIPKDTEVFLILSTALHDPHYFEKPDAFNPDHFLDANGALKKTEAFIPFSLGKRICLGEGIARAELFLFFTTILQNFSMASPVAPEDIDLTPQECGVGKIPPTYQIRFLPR

Cyp-p450 2C8 = Cyp-p450 2C8 (Homo sapiens, UniProt P10632)
Cyp-p450 2C8, sequence (P10632 whole entry): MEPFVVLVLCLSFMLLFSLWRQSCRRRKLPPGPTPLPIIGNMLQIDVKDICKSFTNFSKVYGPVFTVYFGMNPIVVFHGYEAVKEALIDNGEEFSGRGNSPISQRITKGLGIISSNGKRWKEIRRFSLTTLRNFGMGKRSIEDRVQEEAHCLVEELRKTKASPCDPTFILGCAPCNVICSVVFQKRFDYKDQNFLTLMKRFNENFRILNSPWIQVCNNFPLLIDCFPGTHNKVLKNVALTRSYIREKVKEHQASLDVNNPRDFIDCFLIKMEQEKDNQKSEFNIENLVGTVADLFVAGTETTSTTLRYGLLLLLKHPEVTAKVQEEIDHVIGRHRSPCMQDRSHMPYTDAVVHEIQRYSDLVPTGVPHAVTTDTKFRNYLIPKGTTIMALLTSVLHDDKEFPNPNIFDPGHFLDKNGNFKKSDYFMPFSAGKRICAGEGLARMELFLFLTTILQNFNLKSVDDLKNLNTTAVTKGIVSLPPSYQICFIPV

Cyp-p450 2C9 = Cyp-p450 2C9 (Homo sapiens, UniProt P11712)
Cyp-p450 2C9, sequence (P11712 whole entry): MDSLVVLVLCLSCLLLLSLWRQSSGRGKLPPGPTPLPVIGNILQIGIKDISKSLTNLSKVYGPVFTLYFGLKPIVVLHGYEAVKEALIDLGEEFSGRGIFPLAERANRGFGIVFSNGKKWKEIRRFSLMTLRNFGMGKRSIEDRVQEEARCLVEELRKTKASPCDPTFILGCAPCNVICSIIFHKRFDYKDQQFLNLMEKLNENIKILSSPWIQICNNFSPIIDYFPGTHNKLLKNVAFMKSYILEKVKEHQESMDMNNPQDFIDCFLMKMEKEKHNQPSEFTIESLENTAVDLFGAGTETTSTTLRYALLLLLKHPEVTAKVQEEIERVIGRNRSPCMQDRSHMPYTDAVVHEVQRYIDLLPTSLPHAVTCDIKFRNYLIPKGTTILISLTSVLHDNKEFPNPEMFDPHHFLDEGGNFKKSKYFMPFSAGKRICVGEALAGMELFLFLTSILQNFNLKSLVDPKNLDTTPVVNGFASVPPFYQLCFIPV

Cyp-p450 2C19 = Cyp-p450 2C19 (Homo sapiens, UniProt P33261)
Cyp-p450 2C19, sequence (P33261 whole entry): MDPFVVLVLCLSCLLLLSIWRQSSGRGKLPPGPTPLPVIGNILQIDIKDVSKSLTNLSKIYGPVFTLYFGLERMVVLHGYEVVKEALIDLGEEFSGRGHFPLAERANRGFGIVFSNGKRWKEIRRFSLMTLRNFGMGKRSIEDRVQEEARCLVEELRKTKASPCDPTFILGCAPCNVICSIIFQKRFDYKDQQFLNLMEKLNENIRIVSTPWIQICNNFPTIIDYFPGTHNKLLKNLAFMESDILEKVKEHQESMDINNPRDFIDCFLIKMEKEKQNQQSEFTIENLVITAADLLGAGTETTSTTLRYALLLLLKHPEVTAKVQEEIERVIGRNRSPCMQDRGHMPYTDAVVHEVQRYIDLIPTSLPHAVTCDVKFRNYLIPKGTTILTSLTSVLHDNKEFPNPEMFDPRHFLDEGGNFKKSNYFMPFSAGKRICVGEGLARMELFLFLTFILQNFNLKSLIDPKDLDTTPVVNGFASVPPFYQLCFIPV

Cyp-p450 2D6 = Cyp-p450 2D6 (Homo sapiens, UniProt P10635)
Cyp-p450 2D6, sequence (P10635 whole entry): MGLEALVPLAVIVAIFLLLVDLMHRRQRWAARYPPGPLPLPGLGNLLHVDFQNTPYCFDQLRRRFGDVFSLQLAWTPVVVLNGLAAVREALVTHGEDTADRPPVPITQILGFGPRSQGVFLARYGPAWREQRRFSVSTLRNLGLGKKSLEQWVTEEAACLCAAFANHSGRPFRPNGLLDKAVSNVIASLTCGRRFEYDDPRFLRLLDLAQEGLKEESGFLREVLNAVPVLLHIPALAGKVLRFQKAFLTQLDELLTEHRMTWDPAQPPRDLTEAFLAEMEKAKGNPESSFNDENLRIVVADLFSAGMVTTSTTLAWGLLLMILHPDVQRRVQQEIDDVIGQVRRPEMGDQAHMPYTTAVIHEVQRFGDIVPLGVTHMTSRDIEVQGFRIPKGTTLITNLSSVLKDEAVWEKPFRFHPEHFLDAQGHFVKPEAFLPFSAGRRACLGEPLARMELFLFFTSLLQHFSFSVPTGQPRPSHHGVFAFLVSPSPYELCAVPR

Cyp-p450 3A4 = Cyp-p450 3A4 (Homo sapiens, UniProt P08684)
Cyp-p450 3A4, sequence (P08684 whole entry): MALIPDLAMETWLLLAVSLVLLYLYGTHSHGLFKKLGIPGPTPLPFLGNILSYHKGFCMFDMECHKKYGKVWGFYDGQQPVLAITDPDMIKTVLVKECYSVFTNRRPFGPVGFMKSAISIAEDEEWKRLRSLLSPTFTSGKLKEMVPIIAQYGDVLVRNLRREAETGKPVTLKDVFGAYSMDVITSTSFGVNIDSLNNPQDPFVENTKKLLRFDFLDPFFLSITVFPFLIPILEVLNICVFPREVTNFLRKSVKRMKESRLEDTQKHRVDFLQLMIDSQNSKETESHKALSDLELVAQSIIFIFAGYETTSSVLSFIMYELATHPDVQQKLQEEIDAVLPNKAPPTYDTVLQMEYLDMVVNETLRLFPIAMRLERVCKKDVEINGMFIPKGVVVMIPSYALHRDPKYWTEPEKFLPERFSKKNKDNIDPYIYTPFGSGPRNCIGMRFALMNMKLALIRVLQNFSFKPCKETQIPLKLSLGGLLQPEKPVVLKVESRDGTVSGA

Ebola Zaire [15] = tested on: Ebola Zaire
[16] = pH 7
P-gp = P-gp (Homo sapiens, UniProt P08183)
P-gp, sequence (P08183 whole entry): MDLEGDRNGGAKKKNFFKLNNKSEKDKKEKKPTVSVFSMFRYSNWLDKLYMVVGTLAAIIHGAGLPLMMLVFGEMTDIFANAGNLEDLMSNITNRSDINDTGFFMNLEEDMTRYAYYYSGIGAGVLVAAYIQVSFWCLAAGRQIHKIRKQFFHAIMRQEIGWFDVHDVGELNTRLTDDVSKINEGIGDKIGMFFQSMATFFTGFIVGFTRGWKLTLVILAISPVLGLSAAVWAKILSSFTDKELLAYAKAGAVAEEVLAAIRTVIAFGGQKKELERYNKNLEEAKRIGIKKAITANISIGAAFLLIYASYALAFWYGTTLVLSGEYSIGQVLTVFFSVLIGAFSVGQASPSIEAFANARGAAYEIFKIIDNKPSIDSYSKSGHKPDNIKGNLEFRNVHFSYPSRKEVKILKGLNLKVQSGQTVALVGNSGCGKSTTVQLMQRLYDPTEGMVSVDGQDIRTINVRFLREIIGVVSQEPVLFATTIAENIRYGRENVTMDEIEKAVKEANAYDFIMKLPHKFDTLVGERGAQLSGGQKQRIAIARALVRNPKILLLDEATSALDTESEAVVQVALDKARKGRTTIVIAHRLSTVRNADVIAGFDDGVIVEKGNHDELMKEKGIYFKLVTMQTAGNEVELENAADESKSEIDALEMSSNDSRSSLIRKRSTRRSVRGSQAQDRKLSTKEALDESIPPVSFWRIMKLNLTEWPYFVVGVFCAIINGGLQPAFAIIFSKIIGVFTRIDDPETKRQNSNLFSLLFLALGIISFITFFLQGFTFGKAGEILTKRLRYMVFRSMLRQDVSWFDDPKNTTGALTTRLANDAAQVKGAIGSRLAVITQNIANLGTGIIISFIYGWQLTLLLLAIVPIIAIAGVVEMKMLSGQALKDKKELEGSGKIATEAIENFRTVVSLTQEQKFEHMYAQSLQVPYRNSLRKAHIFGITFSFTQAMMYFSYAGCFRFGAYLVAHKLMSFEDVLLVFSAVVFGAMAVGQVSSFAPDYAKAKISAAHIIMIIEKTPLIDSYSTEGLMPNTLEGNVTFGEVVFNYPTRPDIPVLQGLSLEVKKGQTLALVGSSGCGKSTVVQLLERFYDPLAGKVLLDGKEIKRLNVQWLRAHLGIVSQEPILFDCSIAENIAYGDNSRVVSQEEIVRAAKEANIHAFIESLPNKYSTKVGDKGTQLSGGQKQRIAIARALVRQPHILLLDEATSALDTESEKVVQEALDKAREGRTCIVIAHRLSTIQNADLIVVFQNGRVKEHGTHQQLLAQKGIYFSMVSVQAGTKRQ

in vitro [17] = conditions: African green monkey
physchem = conditions: pH 7, kinetic from dmso stock
in vitro [18] = conditions: human, Caco-2
in vitro [19] = conditions: human
in vitro [20] = conditions: mouse
Sudan Gulu [21] = experiment: organism not typed; conditions: read-out: Sudan Gulu EC50; remark: listed apart in the source
Ebola Zaire [22] = experiment: microbe, parasite or virus in culture; conditions: Zaire ebolavirus, read-out: Ebola Zaire EC90
[23] = tested on: VSV (native full-length glycoprotein); experiment: microbe, parasite or virus in culture; format: cell-based; conditions: Vesicular stomatitis virus, Vero, read-out: EC50 Pseudotype Assays VSV
[24] = mouse, in vivo
in vivo = conditions: male, CD-1, mouse
hERG ion channel = hERG ion channel (Homo sapiens, UniProt Q12809); experiment: biochemical
native EBOV virus = conditions: read-out: published EC50 against native EBOV virus; cited from earlier work
Ebola virus infection = conditions: human, in vivo; cited from earlier work
[25] = in vivo, po, 150 mg/kg; cited from earlier work
[26] = human, in vivo; cited from earlier work
Sudan Gulu [27] = tested on: Sudan Gulu
Ebola Zaire [28] = tested on: Ebola Zaire; remark: listed apart in the source
[29] = CYP Inhibition 3A4 (Testosterone)

## C[C@]12CC3CC(C(=O)N4CCC(N)CC4)(C1)C[C@@](c1ccccc1)(C3)C2 [Example B7]
[1]
  EC50: 0.045 µM
[2]
  EC50: 0.04 µM
[3]
  EC50: 0.072 µM
[4]
  EC50: 0.116 µM
[5]
  EC50: 8 µM
[6]
  Liver Microsome Stability % Remaining after 60 Minutes, Human: 86%
[7]
  Liver Microsome Stability % Remaining after 60 Minutes, Mouse: 77%
[8]
  Liver Microsome Stability % Remaining after 60 Minutes, Monkey: 53%
[9]
  Liver Microsome Stability % Remaining after 60 Minutes, Guinea Pig: 72%
In vitro [10]
  CC50: 31 µM
Sudan Gulu [11]
  EC50: 0.17 µM
Sudan Gulu [12]
  EC50: 0.36 µM
Ebola Zaire [13]
  EC50: 0.88 µM
Ebola Zaire [14]
  EC50: 1.9 µM

## C[C@]12CC3CC(C(=O)N[C@H]4CC[C@@H](N)CC4)(C1)C[C@@](c1ccccc1)(C3)C2.Cl [Example B2]
[1]
  EC50: 0.015 µM
[2]
  EC50: 0.01 µM
[3]
  EC50: 0.067 µM
[4]
  EC50: 0.277 µM
[5]
  EC50: 6.45 µM
EBOV (Mayinga)
  SI50 (CC50/EC50): 282
  EC50: 0.24 µM
Cyp-p450 1A2
  IC50: > 100 µM
Cyp-p450 2B6
  IC50: > 100 µM
Cyp-p450 2C8
  IC50: > 100 µM
Cyp-p450 2C9
  IC50: > 100 µM
Cyp-p450 2C19
  IC50: 51 µM
Cyp-p450 2D6
  IC50: > 100 µM
Cyp-p450 3A4; CYP Inhibition 3A4 (Midazolam)
  IC50: > 100 µM
Cyp-p450 3A4; [29]
  IC50: 88 µM
Ebola Zaire [15]
  Ebola Zaire SI (CC50/EC90): 72.5
[6]
  Liver Microsome Stability % Remaining after 60 Minutes, Human: 100%
[7]
  Liver Microsome Stability % Remaining after 60 Minutes, Mouse: 71%
[8]
  Liver Microsome Stability % Remaining after 60 Minutes, Monkey: 85%
[9]
  Liver Microsome Stability % Remaining after 60 Minutes, Guinea Pig: 100%
[16]
  Turbidimetric solubility: >500 µM
P-gp
  P-gp substrate ID Caco-2 Permeability (+Verapamil) Paap Mean A > B: 6.19 10^−6 cm s^−1
  P-gp substrate ID Caco-2 Permeability (+Verapamil) Paap Mean B > A: 6.83 10^−6 cm s^−1
In vitro [10]
  CC50: 19.1 µM
In vitro [17]
  CC50: 67.6 µM
physchem
  solubility: > 500 µM
In vitro [18]
  Papp A→B: 3.07 ×10⁻⁶ cm/s
  Papp B→A: 7.86 ×10⁻⁶ cm/s
  efflux ratio: 2.71
In vitro [19]
  fraction unbound: 0.039
In vitro [20]
  fraction unbound: 0.011
Sudan Gulu [21]
  EC50: 1.1 µM
Sudan Gulu [11]
  EC50: 0.18 µM
Ebola Zaire [13]
  EC50: 0.24 µM
Ebola Zaire [14]
  EC50: 0.44 µM
Ebola Zaire [22]
  EC90: 0.8 µM

## CC12CC3CC(C(=O)N[C@H]4CC[C@@H](N)CC4)(C1)CC(c1ccccc1)(C3)C2.Cl (mixture of isomers) [Example A2]
[1]
  EC50: 0.02 µM
[2]
  EC50: 0.024 µM
[3]
  EC50: 0.09 µM
[4]
  EC50: 0.27 µM
[5]
  EC50: 3.1 µM
[23]
  EC50: > 10 µM
EBOV (Mayinga)
  SI50 (CC50/EC50): 153
  EC50: 0.43 µM
Cyp-p450 1A2
  IC50: > 100 µM
Cyp-p450 2B6
  IC50: > 100 µM
Cyp-p450 2C9
  IC50: > 100 µM
Cyp-p450 2C19
  IC50: > 100 µM
Cyp-p450 2D6
  IC50: > 100 µM
Cyp-p450 3A4; CYP Inhibition 3A4 (Midazolam)
  IC50: > 100 µM
Cyp-p450 3A4; [29]
  IC50: 28 µM
[16]
  Turbidimetric solubility: >500 µM
P-gp
  P-gp substrate ID Caco-2 Permeability (+Verapamil) Paap Mean A > B: 8.47 10^−6 cm s^−1
  P-gp substrate ID Caco-2 Permeability (+Verapamil) Paap Mean B > A: 7.45 10^−6 cm s^−1
[24]
  clearance: less than hepatic blood flow
In vivo
  Vd: 14 L/kg
  bioavailability: 72%
In vivo; 10 mg/kg
  half-life: 7 h
In vivo; iv, 1 mg/kg
  AUC(0-inf): 561 ng·h/mL
  AUC(0-t): 539 ± 23 ng·h/mL
  Cmax: 129 ± 40 ng/mL
  Tmax: 0.083 h
  Vd: 13.9 L/kg
  clearance: 29.7 mL/min/kg
  half-life: 5.4 h
In vivo; po, 10 mg/kg
  AUC(0-inf): 4040 ng·h/mL
  AUC(0-t): 3590 ± 576 ng·h/mL
  Cmax: 239 ± 46 ng/mL
  Tmax: 6 h
  half-life: 7.1 h
In vitro [10]
  CC50: 10.1 µM
In vitro [17]
  CC50: 66 µM
physchem
  solubility: > 500 µM
In vitro [18]
  Papp A→B: 3.61 ×10⁻⁶ cm/s
  Papp B→A: 15.6 ×10⁻⁶ cm/s
  efflux ratio: 4.32
In vitro [19]
  fraction unbound: 0.025
In vitro [20]
  fraction unbound: 0.014
hERG ion channel
  IC50: > 10 µM

## NC(=O)c1nc(F)c[nH]c1=O [favipiravir, reference compound]
EBOV (Mayinga)
  SI50 (CC50/EC50): >59
  EC50: 17 µM
Native EBOV virus
  EC50: 67 µM
Ebola virus infection
  drop in viral load: 3-4 log
In vitro [17]
  CC50: > 1000 µM
[25]
  half-life: 1.8 h
[26]
  half-life in humans: 1 to 4 h

## CC1(C)CN(C(=O)C23CC4C[C@@](C)(C2)C[C@](c2ccccc2)(C4)C3)CCC1N (some centres unmarked) [Example B8]
[1]
  EC50: 0.012 µM
[2]
  EC50: 0.05 µM
[3]
  EC50: 0.084 µM
[4]
  EC50: 0.058 µM
Sudan Gulu [27]
  Sudan Gulu SI (CC50/EC50): 128
[6]
  Liver Microsome Stability % Remaining after 60 Minutes, Human: 76%
[7]
  Liver Microsome Stability % Remaining after 60 Minutes, Mouse: 47%
[8]
  Liver Microsome Stability % Remaining after 60 Minutes, Monkey: 30%
[9]
  Liver Microsome Stability % Remaining after 60 Minutes, Guinea Pig: 56%
In vitro [10]
  CC50: 12.4 µM
Sudan Gulu [21]
  EC50: 0.13 µM

## CCC12CC3CC(C(=O)N4CCC(N)CC4)(C1)CC(c1ccccc1)(C3)C2 (racemic) [Example A32]
[1]
  EC50: 0.042 µM
[2]
  EC50: 0.065 µM
[3]
  EC50: 0.09 µM
[4]
  EC50: 0.215 µM
[5]
  EC50: 7.6 µM
Ebola Zaire [28]
  Ebola Zaire SI (CC50/EC50): 64
In vitro [10]
  CC50: 6 µM
Ebola Zaire [13]
  EC50: 1.33 µM
